Laboratory results published in PubChem BioAssay AID1745844 (Carcinogenic Potency Database (CPDB), 2022).
Activity calls are given as the source filed them. No rule for the calls is given here.

Tested on: rodent lifetime carcinogenesis bioassay, tumor incidence TD50
Assay: carcinogenic potency in animals, long-term in vivo studies, CPDB compilation (AID 1745844)
[1] = mouse, strain B6AKF1, males, oral dosing, site: liver, lesion: hepatoma, dosed 76 weeks, study length 76 weeks
[2] = mouse, strain B6C3F1, females, oral dosing, site: any site (literature study), lesion: several types, types named in the paper, dosed 76 weeks, study length 76 weeks
[3] = mouse, strain B6C3F1, males, oral dosing, site: any site (literature study), lesion: several types, types named in the paper, dosed 76 weeks, study length 76 weeks
[4] = mouse, strain B6C3F1, males, oral dosing, site: liver, lesion: hepatoma, dosed 76 weeks, study length 76 weeks

Nc1c(Cl)c(Cl)nc(C(=O)O)c1Cl
carcinogen call (mouse, strain B6C3F1, females, in feed, site: any site (literature study), lesion: several types, types named in the paper, dosed 80 weeks, study length 90 weeks): negative (inactive)
TD50 (mouse, strain B6C3F1, females, in feed, site: liver, lesion: hepatocellular adenoma + hepatocellular carcinoma + neoplastic nodule, dosed 80 weeks, study length 90 weeks): 20100 mg/kg/day
carcinogen call (mouse, strain B6C3F1, males, in feed, site: any site (literature study), lesion: several types, types named in the paper, dosed 80 weeks, study length 90 weeks): negative (inactive)
TD50 (rat, strain Fischer 344, females, in feed, site: liver, lesion: hepatocellular adenoma, dosed 104 weeks, study length 104 weeks): 15800 mg/kg/day (inactive)
carcinogen call (rat, strain Fischer 344, females, in feed, site: thyroid gland, lesion: parafollicular-cell adenoma, dosed 104 weeks, study length 104 weeks): negative (inactive)
TD50 (rat, strain Fischer 344, males, in feed, site: liver, lesion: hepatocellular adenoma, dosed 104 weeks, study length 104 weeks): 5560 mg/kg/day (inactive)
TD50 (rat, strain Fischer 344, males, in feed, site: liver, lesion: hepatocellular carcinoma, dosed 104 weeks, study length 104 weeks): 8710 mg/kg/day (inactive)
carcinogen call (rat, strain Osborne-Mendel, females, in feed, site: any site (literature study), lesion: several types, types named in the paper, dosed 80 weeks, study length 113 weeks): negative (inactive)
TD50 (rat, strain Osborne-Mendel, females, in feed, site: liver, lesion: hepatocellular adenoma + hepatocellular carcinoma + neoplastic nodule, dosed 80 weeks, study length 113 weeks): 1640 mg/kg/day
TD50 (rat, strain Osborne-Mendel, females, in feed, site: liver, lesion: neoplastic nodule, dosed 80 weeks, study length 111 weeks): 1700 mg/kg/day
TD50 (rat, strain Osborne-Mendel, males, in feed, site: any site (literature study), lesion: several types, types named in the paper, dosed 80 weeks, study length 113 weeks): 2930 mg/kg/day (inactive)
TD50 (rat, strain Osborne-Mendel, males, in feed, site: liver, lesion: hepatocellular adenoma + hepatocellular carcinoma + neoplastic nodule, dosed 80 weeks, study length 113 weeks): 1320 mg/kg/day

CCCCNC(=O)N(CCCC)N=O
TD50 (rat, strain Donryu, females, in drinking water, site: all sites, lesion: leukemia, dosed 75 weeks, study length 75 weeks): 32 mg/kg/day
TD50 (rat, strain Donryu, females, in drinking water, site: any site (literature study), lesion: several types, types named in the paper, dosed 75 weeks, study length 75 weeks): 2.67 mg/kg/day
TD50 (rat, strain Donryu, females, in drinking water, site: liver, lesion: adenoma, dosed 75 weeks, study length 75 weeks): 303 mg/kg/day
TD50 (rat, strain Donryu, females, in drinking water, site: mammary gland, lesion: adenocarcinoma, dosed 75 weeks, study length 75 weeks): 22.7 mg/kg/day
TD50 (rat, strain Donryu, females, in drinking water, site: mammary tissue, wider than the gland, lesion: fibroadenoma, dosed 75 weeks, study length 75 weeks): 2.23 mg/kg/day
TD50 (rat, strain Donryu, females, in drinking water, site: mammary tissue, wider than the gland, lesion: several types, types named in the paper, dosed 75 weeks, study length 75 weeks): 4.28 mg/kg/day
TD50 (rat, strain Donryu, females, in drinking water, site: uterus, lesion: several types, types named in the paper, dosed 75 weeks, study length 75 weeks): 15.3 mg/kg/day

N#CN
TD50 [1]: 191 mg/kg/day
TD50 (mouse, strain B6C3F1, females, in feed, site: all sites, lesion: leukemia + lymphoma, dosed 100 weeks, study length 100 weeks): 478 mg/kg/day (inactive)
TD50 (mouse, strain B6C3F1, females, in feed, site: lung, lesion: alveolar/bronchiolar adenoma + alveolar/bronchiolar carcinoma, dosed 100 weeks, study length 100 weeks): 4040 mg/kg/day
TD50 [2]: 68 mg/kg/day
TD50 (mouse, strain B6C3F1, males, in feed, site: all sites, lesion: hemangiosarcoma, dosed 100 weeks, study length 100 weeks): 766 mg/kg/day (inactive)
TD50 (mouse, strain B6C3F1, males, in feed, site: any site (literature study), lesion: several types, types named in the paper, dosed 100 weeks, study length 100 weeks): 909 mg/kg/day
TD50 (mouse, strain B6C3F1, males, oral dosing, site: all sites, lesion: reticulum-cell sarcoma, dosed 76 weeks, study length 76 weeks): 30.9 mg/kg/day
TD50 [3]: 16.7 mg/kg/day
TD50 [4]: 55.7 mg/kg/day
TD50 (rat, strain Fischer 344, females, in feed, site: any site (literature study), lesion: several types, types named in the paper, dosed 107 weeks, study length 107 weeks): 267 mg/kg/day (inactive)
TD50 (rat, strain Fischer 344, males, in feed, site: all sites, lesion: leukemia + lymphoma + neoplasm, NOS, dosed 107 weeks, study length 107 weeks): 7.45 mg/kg/day (inactive)

CCN(Cc1cccc(S(=O)(=O)O)c1)c1ccc(C(=C2C=CC(=[N+](CC)Cc3cccc(S(=O)(=O)O)c3)C=C2)c2ccccc2S(=O)(=O)[O-])cc1
carcinogen call (mouse, strain Charles River CD1, females, in feed, site: liver, lesion: hemangioma, dosed 104 weeks, study length 104 weeks): negative (inactive)
TD50 (mouse, strain Charles River CD1, females, in feed, site: lung, lesion: adenocarcinoma, dosed 104 weeks, study length 104 weeks): 372000 mg/kg/day (inactive)
carcinogen call (mouse, strain Charles River CD1, females, in feed, site: lung, lesion: alveolar-cell adenoma, dosed 104 weeks, study length 104 weeks): negative (inactive)
TD50 (mouse, strain Charles River CD1, females, in feed, site: lung, lesion: alveolar-cell carcinoma, dosed 104 weeks, study length 104 weeks): 607000 mg/kg/day (inactive)
carcinogen call (mouse, strain Charles River CD1, females, in feed, site: lung, lesion: bronchiolar adenocarcinoma, dosed 104 weeks, study length 104 weeks): negative (inactive)
TD50 (mouse, strain Charles River CD1, females, in feed, site: lung, lesion: bronchiolar adenoma, dosed 104 weeks, study length 104 weeks): 856000 mg/kg/day (inactive)
carcinogen call (mouse, strain Charles River CD1, males, in feed, site: liver, lesion: hemangiosarcoma, dosed 104 weeks, study length 104 weeks): negative (inactive)
carcinogen call (mouse, strain Charles River CD1, males, in feed, site: liver, lesion: hepatocellular carcinoma, dosed 104 weeks, study length 104 weeks): negative (inactive)
TD50 (mouse, strain Charles River CD1, males, in feed, site: lung, lesion: adenocarcinoma, dosed 104 weeks, study length 104 weeks): 293000 mg/kg/day (inactive)
carcinogen call (mouse, strain Charles River CD1, males, in feed, site: lung, lesion: alveogenic adenocarcinoma, dosed 104 weeks, study length 104 weeks): negative (inactive)
carcinogen call (mouse, strain Charles River CD1, males, in feed, site: lung, lesion: alveolar-cell adenoma, dosed 104 weeks, study length 104 weeks): negative (inactive)
carcinogen call (mouse, strain Charles River CD1, males, in feed, site: lung, lesion: alveolar-cell carcinoma, dosed 104 weeks, study length 104 weeks): negative (inactive)
TD50 (mouse, strain Charles River CD1, males, in feed, site: lung, lesion: bronchiolar adenocarcinoma, dosed 104 weeks, study length 104 weeks): 343000 mg/kg/day (inactive)
TD50 (mouse, strain Charles River CD1, males, in feed, site: lung, lesion: bronchiolar adenoma, dosed 104 weeks, study length 104 weeks): 91100 mg/kg/day (inactive)
carcinogen call (rat, strain Osborne-Mendel, both sexes, in feed, site: any site (literature study), lesion: several types, types named in the paper, dosed 104 weeks, study length 104 weeks): negative (inactive)
TD50 (rat, strain Osborne-Mendel, both sexes, in feed, site: liver, lesion: hepatoma, dosed 104 weeks, study length 104 weeks): 62100 mg/kg/day

C=Cc1cccc(C)c1
carcinogen call (mouse, strain B6C3F1, females, inhaled, site: any site (literature study), lesion: several types, types named in the paper, dosed 103 weeks, study length 104 weeks): negative (inactive)
TD50 (mouse, strain B6C3F1, females, inhaled, site: lung, lesion: alveolar/bronchiolar adenoma + alveolar/bronchiolar carcinoma, dosed 103 weeks, study length 104 weeks): 750 mg/kg/day
carcinogen call (mouse, strain B6C3F1, males, inhaled, site: any site (literature study), lesion: several types, types named in the paper, dosed 103 weeks, study length 104 weeks): negative (inactive)
TD50 (rat, strain Fischer 344, females, inhaled, site: any site (literature study), lesion: several types, types named in the paper, dosed 103 weeks, study length 104 weeks): 312 mg/kg/day (inactive)
carcinogen call (rat, strain Fischer 344, males, inhaled, site: any site (literature study), lesion: several types, types named in the paper, dosed 103 weeks, study length 104 weeks): negative (inactive)

c1ccc2sc(SN3CCOCC3)nc2c1
TD50 (mouse, strain B6AKF1, females, oral dosing, site: any site (literature study), lesion: several types, types named in the paper, dosed 76 weeks, study length 76 weeks): 1310 mg/kg/day (inactive)
carcinogen call (mouse, strain B6AKF1, females, oral dosing, site: liver, lesion: hepatoma, dosed 76 weeks, study length 76 weeks): negative (inactive)
carcinogen call (mouse, strain B6AKF1, females, oral dosing, site: lung, lesion: adenoma, dosed 76 weeks, study length 76 weeks): negative (inactive)
carcinogen call (mouse, strain B6AKF1, males, oral dosing, site: any site (literature study), lesion: several types, types named in the paper, dosed 76 weeks, study length 76 weeks): negative (inactive)
TD50 [1]: 20100 mg/kg/day (inactive)
carcinogen call (mouse, strain B6AKF1, males, oral dosing, site: lung, lesion: adenoma, dosed 76 weeks, study length 76 weeks): negative (inactive)
TD50 [2]: 386 mg/kg/day (inactive)
TD50 (mouse, strain B6C3F1, females, oral dosing, site: liver, lesion: hepatoma, dosed 76 weeks, study length 76 weeks): 1230 mg/kg/day (inactive)
TD50 (mouse, strain B6C3F1, females, oral dosing, site: lung, lesion: adenoma, dosed 76 weeks, study length 76 weeks): 598 mg/kg/day (inactive)
TD50 [3]: 200 mg/kg/day (inactive)
TD50 [4]: 359 mg/kg/day (inactive)
TD50 (mouse, strain B6C3F1, males, oral dosing, site: lung, lesion: adenoma, dosed 76 weeks, study length 76 weeks): 556 mg/kg/day (inactive)

O=C1NC(c2ccc([N+](=O)[O-])s2)Nc2ccccc21 (configuration not stated)
TD50 (rat, strain Sprague-Dawley, females, in feed, site: any site (literature study), lesion: several types, types named in the paper, dosed 46 weeks, study length 66 weeks): 1.53 mg/kg/day
TD50 (rat, strain Sprague-Dawley, females, in feed, site: mammary gland, lesion: adenocarcinoma, dosed 46 weeks, study length 66 weeks): 13.3 mg/kg/day

C=C1CC[C@H](O)C/C1=C/C=C1\CCC[C@]2(C)[C@@H]([C@H](C)/C=C/[C@H](C)C(C)C)CC[C@@H]12
TD50 (mouse, strain C3H (MTV+), females, in feed, site: mammary gland, lesion: adenocarcinoma, dosed 104 weeks, study length 104 weeks): 39.6 mg/kg/day

CNc1ncnc2nc[nH]c12
carcinogen call (mouse, strain Swiss CD-1, females, in drinking water, site: liver, lesion: hepatocellular tumor, dosed 26 weeks, study length 104 weeks): negative (inactive)
carcinogen call (mouse, strain Swiss CD-1, females, in drinking water, site: lung, lesion: one or several types, types not named, dosed 26 weeks, study length 104 weeks): negative (inactive)
carcinogen call (mouse, strain Swiss CD-1, males, in drinking water, site: liver, lesion: hepatocellular tumor, dosed 26 weeks, study length 106 weeks): negative (inactive)
carcinogen call (mouse, strain Swiss CD-1, males, in drinking water, site: lung, lesion: one or several types, types not named, dosed 26 weeks, study length 106 weeks): negative (inactive)

C#C[C@]1(O)CC[C@H]2[C@@H]3CCc4cc(OC)ccc4[C@H]3CC[C@@]21C
TD50 (mouse, strain CFLP, females, in feed, site: liver, lesion: hepatocellular tumor, dosed 78 weeks, study length 78 weeks): 6.27 mg/kg/day (inactive)
TD50 (mouse, strain CFLP, males, in feed, site: liver, lesion: hepatocellular tumor, dosed 78 weeks, study length 78 weeks): 1.81 mg/kg/day (inactive)
